From PMC3523126 (Journal of the American Chemical Society, 2012)

What was measured:
[1] = target: Cathepsin L (Homo sapiens, UniProt P07711); experiment: Protease fluorescence activity assay, cathepsin L inhibition; type: biochemical; conditions: crosslinked peptide; ratio of Ki values
[2] = target: T1, Calpain-1 (Homo sapiens, UniProt P07384); experiment: Kinetic analysis of calpain-1 inhibition; type: biochemical; conditions: crosslinked peptide; Michaelis-Menten and Lineweaver-Burke analysis
T1 sequence (P07384 1-714): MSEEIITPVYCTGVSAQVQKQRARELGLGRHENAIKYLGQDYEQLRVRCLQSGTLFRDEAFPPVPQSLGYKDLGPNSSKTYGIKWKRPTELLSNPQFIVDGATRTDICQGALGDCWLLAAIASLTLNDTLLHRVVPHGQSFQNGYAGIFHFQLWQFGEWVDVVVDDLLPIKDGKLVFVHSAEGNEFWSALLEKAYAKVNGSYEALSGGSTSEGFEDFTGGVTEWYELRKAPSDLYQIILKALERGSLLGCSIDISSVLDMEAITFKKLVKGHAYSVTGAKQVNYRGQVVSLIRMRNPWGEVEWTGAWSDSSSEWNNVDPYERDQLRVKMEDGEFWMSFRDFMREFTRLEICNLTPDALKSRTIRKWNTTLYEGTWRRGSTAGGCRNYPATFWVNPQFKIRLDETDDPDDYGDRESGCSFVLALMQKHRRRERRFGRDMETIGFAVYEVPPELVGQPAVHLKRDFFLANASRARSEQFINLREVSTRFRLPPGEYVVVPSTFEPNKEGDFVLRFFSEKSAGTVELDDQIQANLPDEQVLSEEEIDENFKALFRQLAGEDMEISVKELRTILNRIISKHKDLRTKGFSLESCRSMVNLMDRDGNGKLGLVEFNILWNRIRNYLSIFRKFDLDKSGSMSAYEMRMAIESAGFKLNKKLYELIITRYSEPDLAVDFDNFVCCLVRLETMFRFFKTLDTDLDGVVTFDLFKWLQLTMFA
T1 sequence (P04632 1-268 partner): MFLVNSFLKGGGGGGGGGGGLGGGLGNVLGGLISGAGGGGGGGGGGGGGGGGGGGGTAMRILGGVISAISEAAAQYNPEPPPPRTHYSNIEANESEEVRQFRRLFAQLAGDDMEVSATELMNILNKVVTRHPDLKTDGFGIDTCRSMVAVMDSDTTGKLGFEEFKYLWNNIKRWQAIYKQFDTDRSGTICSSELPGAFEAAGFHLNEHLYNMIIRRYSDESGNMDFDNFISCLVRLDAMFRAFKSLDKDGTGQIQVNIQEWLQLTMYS

[3] = target: T1, Calpain-1; conditions: pan-papain family cysteine protease ABP; cited from earlier work

Cathepsin L, sequence (P07711 114-333, species assumed): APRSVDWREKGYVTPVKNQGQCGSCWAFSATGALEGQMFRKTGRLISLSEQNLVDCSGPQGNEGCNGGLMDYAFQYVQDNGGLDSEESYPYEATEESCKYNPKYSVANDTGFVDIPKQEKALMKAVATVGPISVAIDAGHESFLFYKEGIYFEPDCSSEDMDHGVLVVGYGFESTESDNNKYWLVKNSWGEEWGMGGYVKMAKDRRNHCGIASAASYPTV

In the case of `CC[C@H](C)[C@H](NC(C)=O)C(=O)N1CCC[C@H]1C(=O)N1CCC[C@H]1C(=O)N[C@@H](CCCCN)C(=O)N[C@@H](Cc1ccc(O)cc1)C(=O)N[C@H]1CSCc2cccc(c2)CSC[C@@H](C(N)=O)NC(=O)[C@H](CC(C)C)NC(=O)[C@H](CC(C)C)NC(=O)[C@H](CCC(=O)O)NC1=O` [Peptide 3c], the “Potency against calpain over cathepsin L” value [1] was “about four fold more potent” and the “Mechanism of calpain-1 inhibition” value [2] was “competitive inhibitor”.
In the case of `CCOC(=O)[C@H]1O[C@@H]1C(=O)N[C@@H](CC(C)C)C(=O)N[C@@H](Cc1ccc(O)cc1)C(=O)NCCCCCC(=O)N[C@@H](CCCCNC(=O)CCCC[C@@H]1SC[C@@H]2NC(=O)N[C@@H]21)C(N)=O` [DCG-04], the “Labeling of calpains (positive control)” value [3] is listed as “known to label calpains”.
